Source: publication PMC8225959, “Clickable Radiocomplexes With Trivalent Radiometals for Cancer Theranostics: In vitro and in vivo Studies” (Frontiers in Medicine, 2021)
Blank lines part the entries; values can stand above or below the compound they belong to.

Tests used:
[1] = In vitro stability of [111In]In-radiocomplexes in cell culture media, human serum and PBS at 37 °C (HPLC); assay type: in vitro ADME; conditions: for stability in PBS: 24 h at 37°C; for level of degradation in CCM / stability in CCM: cell culture media; for level of degradation in CCM / stability in CCM / stability in HS / compound degraded in HS: 37°C; for level of degradation in CCM: after 24 h; for stability in CCM: first 4 h of incubation; for stability in HS / compound degraded in HS: human serum; for compound degraded in HS: after 4 h of incubation
Description: (§1) Given the limited effect of the pegylated linker on the plasmatic half-life, we focused our successive in vitro stability studies and lipophilicity measurements on the two non-pegylated derivatives [^111In]In-DOTA-Tz and [^111In]In-DOTAGA-Tz. The lipophilicity was evaluated by determination of their partition coefficient log Po/w using the shake-flask method. […] In HS the stability was very good up to 2 h of incubation, but after 4 h of incubation, the degradation started to be quite important with 50 and 30% of the compound degraded for [^111In]In-DOTA-Tz and [^111In]In-DOTAGA-Tz, respectively. […] Taken together, excellent stability of the two [^111In]In-radiocomplexes was observed both in CCM and HS at 37°C for incubation times up to 2 h.
[111In]In-Radiocomplexes: In vitro and in vivo stability
radiolabelled compound dissolved in different media. For the evaluation of the stability in PBS, Cell
times the volume of the desired medium.
The radiocomplexes incubated in Human
The urine samples were centrifuged
during six days by ITLC analysis.

[2] = Biodistribution of [111In]In-radiocomplexes in healthy mice; assay type: in vivo
Description: We performed a biodistribution study of the four [^111In]In-radiocomplexes in healthy mice to determine the clearance rate from systemic blood circulation and the tissue/organ distribution over time. […] The urinary tract was identified as the main excretory pathway since the highest % I.D./g values were found in the kidneys for all the radiocomplexes, associated to rapid radioactivity excretion both at 15 min and 1 h p.i. […] page 9: from whole animal body. Blood samples were taken by cardiac puncture at sacrifice. […] The animals were kept under […] volume of approximate 390 ± 190 mm3. […] […] carried out on groups of 8 mice (n = 4). […] The animals were weighed and dissected.

[3] = In vivo stability: HPLC analysis of urine of injected mice; conditions: mouse urine, 1 h p.i.
Description: To assess the in vivo stability of the radiocomplexes, samples of blood and urine were collected from the mice injected with the compounds and analyzed by HPLC.
Blood samples from mice injected with the tested radiocomplexes, collected at sacrifice time, were
centrifuged, the serum separated and treated with ethanol (1:2 proportion) to precipitate the proteins
and the supernatant was analyzed by HPLC for stability evaluation. The urine samples were centrifuged
at 3000 rpm for 10 min and the supernatant was also analyzed by HPLC.

[4] = Lipophilicity, octanol-water partition coefficient by shake-flask method; assay type: physicochemical; conditions: 1-octanol / PBS pH 7.4
Description: as §1, with “h. […]” for “h.”
Lipophilicity Determination
After phase separation, aliquots

PC3 xenografts = experiment: In vivo click (pre-targeting) biodistribution of [111In]In-DOTA-Tz in PC3-xenografts bearing mice pretargeted with TCO-PEG4-AR; design: Biodistribution: Blood: dose or concentration left out as unconfirmed; conditions: 1 h p.i.
Description: from whole animal body. Blood samples were taken by cardiac puncture at sacrifice. Tissue samples
Biodistribution in PC3 bearing mice
Membrane Matrix (BD Sciences) under anaesthesia with 2% isoflurane. The animals were kept under
volume of approximate 390 ± 190 mm3. Animals were allocated into treatment groups using a complete
carried out on groups of 8 mice (n = 4).
At appropriate time points (15 min,
Immediately after injection,
DOTA-Tz (0.1mL, 50 – 75 µCi µCi).
assumed to be due to total excretion. The animals were weighed and dissected. Then, tissues of interest
radioactivity and weighted.

[5] = In Vivo Click reaction: PC3 xenograft mice pretargeted with TCO-PEG4-AR (4 h prior administration, 1 nM)
[6] = In Vivo Click reaction: PC3 xenograft mice pretargeted with TCO-PEG4-AR (4 h prior administration, 1 nM), listed as [^111In]In-DOTA-Tz
[7] = in vivo click chemistry, pretargeted with TCO-PEG4-AR

stability in PBS [1]: > 85% | level of degradation in CCM [1]: 70% | stability in CCM [1]: very good stability | stability in HS ([1]; 24 h of incubation): almost completely degraded | compound degraded in HS [1]: 50% | stability in HS ([1]; up to 2 h of incubation): very good | Biodistribution: Blood ([2]; 15 min p.i.): 2.5 ± 1.4 % I.D./g | Biodistribution: Bone ([2]; 15 min p.i.): 1.0 ± 0.7 % I.D./g | Biodistribution: Heart ([2]; 15 min p.i.): 0.8 ± 0.5 % I.D./g | Biodistribution: Intestine ([2]; 15 min p.i.): 0.3 ± 0.2 % I.D./g | Biodistribution: Kidney ([2]; 15 min p.i.): 5.2 ± 3.3 % I.D./g | Biodistribution: Liver ([2]; 15 min p.i.): 2.3 ± 0.8 % I.D./g | Biodistribution: Lung ([2]; 15 min p.i.): 1.8 ± 0.9 % I.D./g | Biodistribution: Muscle ([2]; 15 min p.i.): 1.1 ± 0.9 % I.D./g | Biodistribution: Pancreas ([2]; 15 min p.i.): 0.4 ± 0.2 % I.D./g | Biodistribution: Spleen ([2]; 15 min p.i.): 0.8 ± 0.2 % I.D./g | Biodistribution: Stomach ([2]; 15 min p.i.): 0.3 ± 0.2 % I.D./g | Excretion ([2]; 15 min p.i.): 58.3 ± 25.3 % I.D. | Biodistribution: Blood ([2]; 1 h p.i.): 0.32 ± 0.07 % I.D./g | Biodistribution: Bone ([2]; 1 h p.i.): 0.12 ± 0.03 % I.D./g | Biodistribution: Heart ([2]; 1 h p.i.): 0.11 ± 0.02 % I.D./g | Biodistribution: Intestine ([2]; 1 h p.i.): 0.05 ± 0.01 % I.D./g | Biodistribution: Kidney ([2]; 1 h p.i.): 1.6 ± 0.3 % I.D./g | Biodistribution: Liver ([2]; 1 h p.i.): 0.29 ± 0.09 % I.D./g | Biodistribution: Lung ([2]; 1 h p.i.): 0.29 ± 0.03 % I.D./g | Biodistribution: Muscle ([2]; 1 h p.i.): 0.08 ± 0.01 % I.D./g | Biodistribution: Pancreas ([2]; 1 h p.i.): 0.06 ± 0.01 % I.D./g | Biodistribution: Spleen ([2]; 1 h p.i.): 0.09 ± 0.01 % I.D./g | Biodistribution: Stomach ([2]; 1 h p.i.): 0.09 ± 0.05 % I.D./g | Excretion ([2]; 1 h p.i.): 91.8 ± 1.0 % I.D. | Excretion ([2]; 1 h p.i., listed as [^111In]In-DOTA-Tz): above 90 % I.D. | log Po/w [4]: −1.60 ± 0.13 | Biodistribution: Blood (PC3 xenografts; In Vivo Click reaction: PC3 xenograft mice pretargeted with TCO-PEG4-AR (4 h prior administration)): 0.28 ± 0.09 % I.D./g | Biodistribution: Bone (PC3 xenografts; [5]): 0.21 ± 0.09 % I.D./g | Biodistribution: Heart (PC3 xenografts; [5]): 0.12 ± 0.04 % I.D./g | Biodistribution: Intestine (PC3 xenografts; [5]): 0.12 ± 0.04 % I.D./g | Biodistribution: Kidney (PC3 xenografts; [5]): 1.5 ± 0.3 % I.D./g | Biodistribution: Liver (PC3 xenografts; [5]): 0.3 ± 0.1 % I.D./g | Biodistribution: Lung (PC3 xenografts; [5]): 0.26 ± 0.06 % I.D./g | Biodistribution: Muscle (PC3 xenografts; [5]): 0.15 ± 0.11 % I.D./g | Biodistribution: Spleen (PC3 xenografts; [5]): 0.11 ± 0.04 % I.D./g | Biodistribution: Stomach (PC3 xenografts; [5]): 0.09 ± 0.06 % I.D./g | Biodistribution: Tumour (PC3 xenografts; [5]): 0.78 ± 0.54 % I.D./g | Biodistribution: Kidney (PC3 xenografts; [6]): 1.5 % I.D./g | Biodistribution: Tumour (PC3 xenografts; [6]): 0.78 % I.D./g | tumor/blood ratio (PC3 xenografts; [7]): 2.8 | tumor/muscle ratio (PC3 xenografts; [7]): 5.2
Compound: O=C([O-])CN1CCN(CC(=O)[O-])CCN(CC(=O)NCc2ccc(-c3nncnn3)cc2)CCN(CC(=O)[O-])CC1.[111In+3] [[111In]In-DOTA-Tz]
in vivo stability / metabolization (urine HPLC) [3]: eliminated without undergoing any metabolization or degradation

stability in PBS [1]: > 85% | level of degradation in CCM [1]: 70% | stability in CCM [1]: very good stability | stability in HS ([1]; 24 h of incubation): almost completely degraded | compound degraded in HS [1]: 30% | stability in HS ([1]; up to 2 h of incubation): very good | Biodistribution: Blood ([2]; 15 min p.i.): 3.2 ± 0.7 % I.D./g | Biodistribution: Bone ([2]; 15 min p.i.): 1.2 ± 0.2 % I.D./g | Biodistribution: Heart ([2]; 15 min p.i.): 0.9 ± 0.2 % I.D./g | Biodistribution: Intestine ([2]; 15 min p.i.): 0.4 ± 0.1 % I.D./g | Biodistribution: Kidney ([2]; 15 min p.i.): 7.2 ± 0.4 % I.D./g | Biodistribution: Liver ([2]; 15 min p.i.): 1.6 ± 0.4 % I.D./g | Biodistribution: Lung ([2]; 15 min p.i.): 1.9 ± 0.4 % I.D./g | Biodistribution: Muscle ([2]; 15 min p.i.): 0.9 ± 0.2 % I.D./g | Biodistribution: Pancreas ([2]; 15 min p.i.): 0.6 ± 0.1 % I.D./g | Biodistribution: Spleen ([2]; 15 min p.i.): 0.6 ± 0.1 % I.D./g | Biodistribution: Stomach ([2]; 15 min p.i.): 0.6 ± 0.3 % I.D./g | Excretion ([2]; 15 min p.i.): 62.7 ± 1.5 % I.D. | Biodistribution: Blood ([2]; 1 h p.i.): 1.1 ± 0.3 % I.D./g | Biodistribution: Bone ([2]; 1 h p.i.): 0.5 ± 0.1 % I.D./g | Biodistribution: Heart ([2]; 1 h p.i.): 0.4 ± 0.1 % I.D./g | Biodistribution: Intestine ([2]; 1 h p.i.): 0.26 ± 0.09 % I.D./g | Biodistribution: Kidney ([2]; 1 h p.i.): 3.6 ± 1.0 % I.D./g | Biodistribution: Liver ([2]; 1 h p.i.): 1.0 ± 0.3 % I.D./g | Biodistribution: Lung ([2]; 1 h p.i.): 0.8 ± 0.2 % I.D./g | Biodistribution: Muscle ([2]; 1 h p.i.): 0.27 ± 0.07 % I.D./g | Biodistribution: Pancreas ([2]; 1 h p.i.): 0.3 ± 0.1 % I.D./g | Biodistribution: Spleen ([2]; 1 h p.i.): 0.3 ± 0.1 % I.D./g | Biodistribution: Stomach ([2]; 1 h p.i.): 0.3 ± 0.2 % I.D./g | Excretion ([2]; 1 h p.i.): 81.5 ± 5.1 % I.D. | Biodistribution: Kidney ([2]; 1 h p.i., listed as [^111In]In-DOTAGA-Tz): 3.6 ± 1 % I.D./g | in vivo stability / metabolization (urine HPLC) [3]: overall low degree of metabolization | log Po/w [4]: −3.44 ± 0.29
Compound: O=C([O-])CN1CCN(CC(=O)[O-])CCN(C(CCC(=O)NCc2ccc(-c3nncnn3)cc2)C(=O)[O-])CCN(CC(=O)[O-])CC1.[111In+3] (stereo not drawn) [[111In]In-DOTAGA-Tz]
